Legend:
Type in all cases: cell-based
OAT3 [1] = target: T1, OAT3 (Homo sapiens, UniProt Q8TCC7); test: inhibition of 6-carboxyfluorescein uptake in HEK-293 cells stably overexpressing human OAT3 (data not shown)
T1 construct: gene SLC22A8
T1 sequence (Q8TCC7 1-542): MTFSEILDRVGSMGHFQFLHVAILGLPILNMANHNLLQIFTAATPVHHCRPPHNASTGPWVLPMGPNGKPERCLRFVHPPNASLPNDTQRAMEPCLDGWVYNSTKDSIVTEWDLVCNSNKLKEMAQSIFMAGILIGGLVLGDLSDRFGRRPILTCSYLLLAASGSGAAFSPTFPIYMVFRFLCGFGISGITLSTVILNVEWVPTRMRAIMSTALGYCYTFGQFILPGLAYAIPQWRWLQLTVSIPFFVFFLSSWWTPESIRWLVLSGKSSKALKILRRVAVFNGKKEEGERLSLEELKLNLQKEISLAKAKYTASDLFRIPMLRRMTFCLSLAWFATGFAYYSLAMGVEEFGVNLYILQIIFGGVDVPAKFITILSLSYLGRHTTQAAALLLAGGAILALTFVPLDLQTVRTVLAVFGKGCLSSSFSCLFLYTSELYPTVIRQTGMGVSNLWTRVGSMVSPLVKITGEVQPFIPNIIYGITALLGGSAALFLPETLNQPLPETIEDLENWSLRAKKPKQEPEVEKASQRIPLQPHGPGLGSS

OAT3 [2] = target: T1, OAT3; test: inhibition of 6-carboxyfluorescein uptake in HEK-293 cells stably overexpressing human OAT3
OAT1 = target: T2, OAT1 (Homo sapiens, UniProt Q4U2R8); test: inhibition of 6-carboxyfluorescein uptake in HEK-293 cells stably overexpressing human OAT1
T2 construct: gene SLC22A6
T2 sequence (Q4U2R8 1-563): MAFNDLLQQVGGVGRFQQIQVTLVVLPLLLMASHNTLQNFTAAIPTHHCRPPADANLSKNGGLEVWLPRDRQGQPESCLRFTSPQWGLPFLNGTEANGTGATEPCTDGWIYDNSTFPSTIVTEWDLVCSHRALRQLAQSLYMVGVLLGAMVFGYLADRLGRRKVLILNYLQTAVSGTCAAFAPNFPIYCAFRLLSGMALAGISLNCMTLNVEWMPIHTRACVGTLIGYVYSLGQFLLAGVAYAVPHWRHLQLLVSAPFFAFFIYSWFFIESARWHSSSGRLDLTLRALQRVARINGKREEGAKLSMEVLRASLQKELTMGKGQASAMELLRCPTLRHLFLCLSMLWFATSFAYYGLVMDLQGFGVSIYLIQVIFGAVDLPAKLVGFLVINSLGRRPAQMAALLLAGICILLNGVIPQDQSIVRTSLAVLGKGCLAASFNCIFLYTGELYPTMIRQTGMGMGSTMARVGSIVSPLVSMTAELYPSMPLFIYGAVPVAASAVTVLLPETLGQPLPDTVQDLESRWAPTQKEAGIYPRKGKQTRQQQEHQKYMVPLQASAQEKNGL

SMILES | IC50 (OAT3 [1]) [µM] | IC50 (OAT3 [2]) [µM] | IC50 (OAT1) [µM]
NCCc1c[nH]c2ccc(O)cc12 [serotonin] | 288 ± 167 |  | 
O=C(O)[C@@H](O)Cc1c[nH]c2ccccc12 [ILA, indolelactic acid] |  | 74.5 ± 23.3 | 229 ± 74.6

From PMC8102410, “Coordinate regulation of systemic and kidney tryptophan metabolism by the drug transporters OAT1 and OAT3” (The Journal of Biological Chemistry, 2021)
